Assay results from patent US7595056B1, “Methods of rejuvenating Leydig cells and enhancing testosterone production in a male subject” (University of Tennessee Research Foundation, priority 2002, dated 2009).
“Also recorded” adds a separate entry of the source.

Legend:
[1] = test system: Leydig cells; settings: Leydig cells isolated from 60 days old rats, in vitro; cited from earlier work
[2] = test system: testis of Brown Norway rats; test: Microscopy and stereology of the testis of aged Brown Norway rats treated 4 weeks with LH, T4 or LH+T4; format: in vivo, Brown Norway rat
Excerpt: (§1) Male Brown Norway rats aged 3, 6, 12 (n=8 per group; 3M, 6M, and 12M, respectively), and 18 months (M) (n=32; 18M) were purchased from Harlan (Madison, Wis., United States of America). The 18M rats were divided equally into four groups (n=8 per group). Under deep inhalation anesthesia (METOFANE™; Malincroft Veterinary, Inc., Mundelein, Ill., United States of America), the four groups of 18M rats were implanted subdermally with ALZET™ mini-osmotic pumps (model 2ML4; Alza Corporation, Palo Alto, Calif., United States of America), containing saline (control), LH (24 μg/day; National Hormone and Pituitary Program, Los Angeles, Calif., United States of America), thyroxine (T4; 5 μg/day; Sigma, St. Louis, Mo., United States of America), and LH and T4 (LH+T4; two pumps, 24 […] of T4), respectively, for 4 weeks (to 19 months [19M] of age). These doses of LH (Mendis-Handagama et al., (1998) Tissue Cell 30:64-73) and thyroid hormone (Ariyaratne et al., (2000) Biol. Reprod. 63:1115-1123) were used based on previously published studies. Rats were maintained under conditions of controlled temperature (25° C.) and lighting (14 hour/10 hour light/dark cycle) and were housed individually (one rat per cage). The animals were fed with Agway PROLAB™ rat formula (Agway, Syracuse, N.Y., United States of America) and water ad libitum until they were sacrificed. The animal protocol employed (No. 488) meets the guidelines of the National Institutes of Health and was approved by the University of Tennessee Animal Care and Concerns Committee.
Pumps were filled with either saline, LH, or T4, and were primed in saline for 3 hours before implantation so that they would deliver their contents immediately on subdermal implantation into the interscapular region. The LH+T4 rats received two pumps each, one containing LH and one containing T4; the other rats received one pump containing either saline, LH, or T4. After 4 weeks of treatment, rats were sacrificed. In addition, implanted pumps were removed and examined to verify that they had delivered their contents as expected.
One testis of each rat in the 3M, 6M, 12M, and 19M age groups was removed, cleaned of fat, and weighed on a Mettler H54 balance to obtain the fresh testis weight. Using the flotation technique (Mendis-Handagama et al., (1988) Am. J. Anat. 181:12-22; Mori & Christensen, (1980) J. Cell. Biol. 84:340-354; and Mendis-Handagama & Ewing, (1990) J. Microsc. (Oxf) 159:73-82), the specific gravity of the fresh testis was determined as described previously (Mori & Christensen, (1980) J. Cell. Biol. 84:340-354 and Mendis-Handagama & Ewing, (1990) J. Microsc. (Oxford) 159:73-82), and the fresh testis volume was calculated by dividing the fresh testis weight by the specific gravity (in metric units, specific gravity equals density). This measurement is required to express Leydig cell numbers per testis, because numerical density is obtained as a number per unit volume of the testis. The testis was then decapsulated, and the entire testis was incubated for 3 hours in the same medium as described previously (Ariyaratne et al., (2000) Biol. Reprod. 63:1115-1123; Mendis-Handagama et al., (1998) Biol. Reprod. 59:351-357; Mendis-Handagama et al., (1990) J. Androl. 11:548-554; Ariyaratne et al., (2000) Biol. Reprod. 63:493-502; and Ariyaratne & Mendis-Handagama, (2000) Biol. Reprod. 62:158-168) to determine the LH-stimulated testosterone-secretory capacity per testis in vitro. Testosterone levels in the incubation medium were measured by RIA using commercially available kits (COAT-A-COUNT™), and the details of the assay are given above (see Laboratory Example 4). Testosterone-secretory capacity per Leydig cell was calculated by dividing the testosterone-secretory capacity per testis by the number of Leydig cells per testis. […]

[3] = RIA for serum LH, T4, triiodothyronine and testosterone of treated rats; format: in vivo, Brown Norway rat
Excerpt: as §1, with “Committee. […]” for “Committee.”
Serum LH hormone was quantified using a commercially available rat luteinizing hormone (rLH) kit (Amersham Pharmacia Biotech, Piscataway, N.J., United States of America). […]
The PC SAS software (SAS Institute Inc., Cary, N.C., United States of America) was used to analyze the data. Results are expressed as mean± standard error of the mean (SEM). […]

[4] = test system: Leydig cells; test: LH-stimulated testicular steroidogenesis in vitro (testis of treated rats incubated 3 hours, testosterone by RIA); format: in vivo, Brown Norway rat
Excerpt: Male Brown Norway rats aged 3, 6, 12 (n=8 per group; 3M, 6M, and 12M, respectively), and 18 months (M) (n=32; 18M) were purchased from Harlan (Madison, Wis., United States of America). The 18M rats were divided equally into four groups (n=8 per group). Under deep inhalation anesthesia (METOFANE™; Malincroft Veterinary, Inc., Mundelein, Ill., United States of America), the four groups of 18M rats were implanted subdermally with ALZET™ mini-osmotic pumps (model 2ML4; Alza Corporation, Palo Alto, Calif., United States of America), containing saline (control), LH (24 μg/day; National Hormone and Pituitary Program, Los Angeles, Calif., United States of America), thyroxine (T4; 5 μg/day; Sigma, St. Louis, Mo., United States of America), and LH and T4 (LH+T4; two pumps, 24 […] of T4), respectively, for 4 weeks (to 19 months [19M] of age). […]
One testis of each rat in the 3M, 6M, 12M, and 19M age groups was removed, cleaned of fat, and weighed on a Mettler H54 balance to obtain the fresh testis weight. Using the flotation technique (Mendis-Handagama et al., (1988) Am. J. Anat. 181:12-22; Mori & Christensen, (1980) J. Cell. Biol. 84:340-354; and Mendis-Handagama & Ewing, (1990) J. Microsc. (Oxf) 159:73-82), the specific gravity of the fresh testis was determined as described previously (Mori & Christensen, (1980) J. Cell. Biol. 84:340-354 and Mendis-Handagama & Ewing, (1990) J. Microsc. (Oxford) 159:73-82), and the fresh testis volume was calculated by dividing the fresh testis weight by the specific gravity (in metric units, specific gravity equals density). […] Testosterone levels in the incubation medium were measured by RIA using commercially available kits (COAT-A-COUNT™), and the details of the assay are given above (see Laboratory Example 4). Testosterone-secretory capacity per Leydig cell was calculated by dividing the testosterone-secretory capacity per testis by the number of Leydig cells per testis. […]

[5] = target: rat growth hormone (rat) (UniProt P01244); test: RIA, rat LH kit (Amersham Pharmacia Biotech); cross-reactivity against rat LH as reference
[6] = target: rat follicle stimulating hormone (FSH) (rat) (UniProt P11962); test: as above
[7] = target: rat prolactin (rat) (UniProt P01237); test: as above
[8] = target: rat TSH (rat) (UniProt P11962); test: as above
[9] = target: rat adenocorticotropic hormone (ACTH) (rat) (UniProt P01194); test: as above
[10] = 19M Brown Norway rats after 4 weeks subdermal osmotic pump (LH 24 μg/day, T4 5 μg/day), mean, n=8

Sequence of UniProt P01244 (P01244 27-216 limits assumed): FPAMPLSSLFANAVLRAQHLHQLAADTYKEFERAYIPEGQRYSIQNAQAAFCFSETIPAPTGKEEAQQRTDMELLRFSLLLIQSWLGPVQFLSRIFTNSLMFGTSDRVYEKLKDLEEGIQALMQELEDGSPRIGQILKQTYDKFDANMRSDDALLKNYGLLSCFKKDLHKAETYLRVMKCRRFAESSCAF
Sequence of UniProt P01194 (P01194 124-162 limits assumed): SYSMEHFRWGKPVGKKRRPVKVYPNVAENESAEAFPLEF
Sequence of UniProt P01237 (P01237 30-226 limits assumed): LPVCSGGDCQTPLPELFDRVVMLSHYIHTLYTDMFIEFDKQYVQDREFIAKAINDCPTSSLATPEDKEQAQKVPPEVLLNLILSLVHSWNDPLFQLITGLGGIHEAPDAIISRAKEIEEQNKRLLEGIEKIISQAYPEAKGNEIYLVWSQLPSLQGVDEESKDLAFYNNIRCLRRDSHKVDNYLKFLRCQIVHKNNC

**Q.** With `N[C@@H](Cc1cc(I)c(Oc2ccc(O)c(I)c2)c(I)c1)C(=O)O` [T3, L-3,5,3′-triiodothyronine] as the compound, how does the “Effect on testosterone secretion of Leydig cells” value [1] read?
**A.** increased testosterone secretion of Leydig cells in a dose dependent fashion up to 50 ng

**Q.** And the “Minimum effective dose for testosterone production” value [1]?
**A.** 25 ng

**Q.** What does the source list for `N[C@@H](Cc1cc(I)c(Oc2cc(I)c(O)c(I)c2)c(I)c1)C(=O)O` [T4, L-3,5,3′,5′-tetraiodothyronine]?
**A.** Average volume of a Leydig cell [2, 10]: 1998 μm^3; Leydig cell number per Testis [2, 10]: 21.80 10^6; Volume density of Leydig cells [2, 10]: 2.38%; Absolute volume of Leydig cells per testis, comparison between groups in words ([2]; 19M treated rats versus 19M control and younger rats, P<0.05): higher values compared to 19M control rats; also recorded: not significantly different from those of 12M rats; Average volume of a Leydig cell, comparison between groups in words ([2]; 19M treated rats versus younger rats, P<0.05): significantly lower than those in 3M and 6M rats; also recorded: partially effective; Size of Leydig cell profiles in tissue sections ([2]; light microscopy, 19M treated rats versus 19M control rats): much larger than those in 19M control rats; Mean Absolute Volume of Leydig cells ([2]; per testis, 19M Brown Norway rats after 4 weeks subdermal osmotic pump (LH 24 μg/day, T4 5 μg/day), mean, n=8): 43.57 mm^3; Mean Serum Testosterone [3, 10]: 73 ng/dL; Serum LH levels, comparison between groups in words ([3]; 19M treated rats versus 3M through 12M rats): reduced significantly; Serum testosterone levels, comparison between groups in words ([3]; 19M treated rats versus 19M controls and younger rats, P<0.05): significantly greater than 19M controls; also recorded: significantly lower than those in 3M through 12M rats; also recorded: not sufficient to upgrade the serum testosterone levels in 19M rats to those of 3M and 6M rats; LH-stimulated testosterone-secretory capacity per testis and per Leydig cell in vitro, comparison between groups in words ([4]; 19M treated rats versus younger rats): comparable to those in 12M rats; Mean Testosterone-Secretory Capacity Per testis ([4]; LH-stimulated, in vitro, 3 hours incubation, testis of 19M rats treated 4 weeks (LH 24 μg/day, T4 5 μg/day), mean, n=8): 14,748 ng; Mean Testosterone-Secretory Capacity Per Leydig cell ([4]; LH-stimulated, in vitro, capacity per testis divided by number of Leydig cells per testis, 19M rats treated 4 weeks): 0.67 pg

**Q.** With “antibody for LH of the commercially available rat luteinizing hormone (rLH) RIA kit (Amersham Pharmacia Biotech)” as the compound, how does the cross-reactivity [5] read?
**A.** 0.1%

**Q.** What about the cross-reactivity [6] of the same compound?
**A.** < 0.016%

**Q.** What about the cross-reactivity [7] of the same compound?
**A.** < 0.8%

**Q.** And the cross-reactivity [8]?
**A.** 0.66%

**Q.** What about the cross-reactivity [9] of the same compound?
**A.** < 0.00092%
